Source: patent US9556169B2, “Compounds and compositions for the treatment of parasitic diseases” (NOVARTIS AG, priority 2012, dated 2017)

What was measured:
[1] = system: P. falciparum (NF54 or 3D7 strain); assay: P. falciparum proliferation assay in infected human blood cells (SYBR Green); format: cell-based; details: Plasmodium falciparum, Erythrocyte; infected human erythrocytes, 72 hours, SYBR Green fluorescence; read-out: EC50 (nM), inhibitory efficacy in delaying P. falciparum proliferation in infected human blood cells
How it was run: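 Asexual NF54 or 3D7 parasites in O+ human erythrocytes (final 2.5% hematocrit, 0.3% parasitemia) exposed to compound for 72 h at 37 °C under 93% N2/4% CO2/3% O2. Lysis with SYBR Green I overnight at rt; fluorescence (ex 425/em 530 nm) tracks parasite DNA, giving EC50.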

[2] = system: Plasmodium yoelii (17XNL) sporozoites; assay: Liver stage P. yoelii sporozoite invasion assay in HepG2-A16-CD81EGFP cells; format: cell-based; details: values without * in Table 2, HepG2-A16-CD81EGFP liver cells, 48 hours, immunofluorescence, read-out: EC50 (nM), P. yoelii Sporozoite Invasion Assay
Description: Assay for Proliferation of Parasite in Infected Liver Cells
Compounds of the invention can be assayed to measure their capacity to inhibit proliferation of parasites in liver cells. The proliferation is quantified by determine the number of infected cells by immunofluorescence.
Due to the difficulty of successfully infecting immortalized human liver cell lines with the human malaria sporozoites (liver-stage parasite), rodent malaria sporozoites from Plasmodium yoelii (17XNL) and P. berghei (ANKA) are the preferred surrogate. Sporozoites are obtained from Anopheles stephensi mosquitoes supplied by the New York University Insectary, which ships the malaria-infected mosquitoes 10-13 days following the ingestion of an infective blood meal.
A transgenic HepG2 cell line expressing the tetraspanin CD81 receptor (HepG2-A16-CD81^EGFP) is used to increase the infectivity rate of rodent-malaria sporozoites into human cells. HepG2-A16-CD81^EGFP cells are stably transformed to express a GFP-CD81 fusion protein. A continuous in vitro culture of this line was maintained at 37° C. in 4% CO2 in complete media (CM) which contains: DMEM (Invitrogen, Carlsbad, USA) supplemented with 10% FCS, 0.29 mg/ml glutamine, 100 units penicillin and 100 μg/ml streptomycin (SigmaAldrich, USA).
Liver Stage P. yoelii Sporozoite Invasion Assay
Twenty to twenty-six hours prior to sporozoite infection, 7.5×10^3 HepG2-A16-CD81^EGFP cells are seeded into 384-well plates (Aurora 384 IQ-EB black plates with clear bottoms; 50 μl of 1.5×10^5 cells/ml in CM). These plates are incubated at 37° C. with 4% CO2 overnight. Two hours prior to infection, 50 nl of compound dissolved in DMSO (0.1% final DMSO concentration per well) were transferred with a PinTool (GNF Systems) into the assay plates (10 μM final concentration). A 1:3 serial dilution of atovaquone (10 μM at the highest final concentration) and wells treated only with DMSO were used as positive and negative controls, respectively.
Freshly dissected salivary glands from infected mosquitoes were homogenized in a glass tissue grinder, filtered twice through Nylon cell strainers (40 μm pore size, BD Falcon) and counted using a hemocytometer. The assay plate with HepG2-A16-CD81^EGFP cells and compound were then infected with 8×10^3 sporozoitesper well and the plates are subjected to a centrifugal force of 650×g to pellet the sporozoites onto the liver cell monolayer. The assay plate is incubated at 37° C. for 2 hours to permit sporozoite invasion, then the media is aspirated from the media plate, and replaced with 50 μl CM (containing a 5× concentration of penicillin/streptomycin; 500 units penicillin and 0.5 mg streptomycin per ml) per well. 50 nl of compound is re-introduced by PinTool and the assay plate incubated for 48 hours at 37° C. before quantification of infected cells by immunofluorescence.
Atovaquone and uninfected wells were used as controls on each plate. Two replicate plates are tested for each assay.
After fixing the cells by addition of 12.5 μl of 20% solution of paraformaldehyde (EMS, Hatfield, USA) to each assay well (4% final formaldehyde concentration), membranes were permeabilized with 0.5% Triton-X-100 (Thermo Fisher Scientific) and EEFs were stained using a mouse polyclonal serum raised against the Plasmodium yoelii heat shock protein 70 (PyHSP70), a DyLight 649 goat anti-mouse IgG, Fc(gamma) fragment specific secondary antibody (Jackson Immuno Research, Cat#115-495-071) and the Hoechst 33342 nucleic acid dye (Invitrogen, Carlsbad, USA). Stained EEFs were then quantified using the Opera Confocal High Content Screening System (Perkin Elmer, Waltham, USA). Images were collected using a 20× objective lens (20×/0.45 NA, LWD Plan Fluor, Olympus) at a binning of 2, using a 365 nm Xeon arc lamp illumination to detect the Hoechst-labeled nuclei and 635 nm laser line to excite DyLight649-labeled parasites. The image resolution yielded was approximately 0.66 μm/pixel (˜0.43 μm 2/pixel). […]

SMILES	EC50 [1] [nM]	EC50 [2] [nM]
CN(C(=O)c1ccn2ncc(-c3ccc(C(=O)NCCO)cc3)c2c1)c1ccc(C#N)cn1 [Example 102, N-(5-Cyanopyridin-2-yl)-3-(4-((2-hydroxyethyl)carbamoyl)phenyl)-N-methylpyrazolo[1,5-a]pyridine-5-carboxamide]	10	660
CNC(=O)c1ccc(-c2cnn3ccc(C(=O)N(C)c4ccc(C(F)(F)F)cc4)cc23)cc1 [Example 103, N-Methyl-3-(4-(methylcarbamoyl)phenyl)-N-(4-(trifluoromethyl)phenyl)pyrazolo[1,5-a]pyridine-5-carboxamide]	3	62
CN(C(=O)c1ccn2ncc(-c3ccc(C(=O)NCCN)cc3)c2c1)c1ccc(C#N)cn1 [Example 104, 3-(4-((2-Aminoethyl)carbamoyl)phenyl)-N-(5-cyanopyridin-2-yl)-N-methylpyrazolo[1,5-a]pyridine-5-carboxamide]	125	1200
CN(C(=O)c1ccn2ncc(-c3cnc(Cl)c(NS(C)(=O)=O)c3)c2c1)c1ccc(C#N)cn1 [Example 107, 3-(6-Chloro-5-(methylsulfonamido)pyridin-3-yl)-N-(5-cyanopyridin-2-yl)-N-methylpyrazolo[1,5-a]pyridine-5-carboxamide]	10	180
CN(C(=O)c1ccn2ncc(-c3ccnc(N)c3)c2c1)c1ccc(C#N)cn1 [Example 108, 3-(2-Aminopyridin-4-yl)-N-(5-cyanopyridin-2-yl)-N-methylpyrazolo[1,5-a]pyridine-5-carboxamide]	2470	472
CNC(=O)c1ccc(-c2cnn3ccc(C(=O)N(C)c4ccc(Cl)cc4)cc23)cn1 [Example 109, N-(4-Chlorophenyl)-N-methyl-3-(6-(methylcarbamoyl)pyridin-3-yl)pyrazolo[1,5-a]pyridine-5-carboxamide]	19	62
CNC(=O)c1ccc(-c2cnn3ccc(C(=O)N(CCO)c4ccc(C#N)cc4)cc23)cc1 [Example 110, N-(4-Cyanophenyl)-N-(2-hydroxyethyl)-3-(4-(methylcarbamoyl)phenyl)pyrazolo[1,5-a]pyridine-5-carboxamide]	54	253
CNC(=O)c1ccc(-c2cnn3ccc(C(=O)N(C)c4ccc(OCCN)cn4)cc23)cc1 [Example 111, N-(5-(2-Aminoethoxyl)pyridin-2-yl)-N-methyl-3-(4-(methylcarbamoyl)phenyl)pyrazolo[1,5-a]pyridine-5-carboxamide]	6300	> 10000
CNC(=O)c1ccc(-c2cnn3ccc(C(=O)N(c4ccc(C#N)cn4)C4CCC4)cc23)cc1 [Example 112, N-(5-Cyanopyridin-2-yl)-N-cyclobutyl-3-(4-(methylcarbamoyl)phenyl)pyrazolo[1,5-a]pyridine-5-carboxamide]	4	9
CN(C(=O)c1ccn2ncc(-c3ccc(C(=O)NC4CCNCC4)cc3)c2c1)c1ccc(C#N)cn1 [Example 113, N-(5-Cyanopyridin-2-yl)-N-methyl-3-(4-(piperidin-4-ylcarbamoyl)phenyl)pyrazolo[1,5-a]pyridine-5-carboxamide]	311	1650
CNCCNC(=O)c1ccc(-c2cnn3ccc(C(=O)N(C)c4ccc(C#N)cn4)cc23)cc1 [Example 114, N-(5-Cyanopyridin-2-yl)-N-methyl-3-(4-((2-(methylamino)ethyl)carbamoyl)phenyl)pyrazolo[1,5-a]pyridine-5-carboxamide]	52	950
CN(C)CCNC(=O)c1ccc(-c2cnn3ccc(C(=O)N(C)c4ccc(C#N)cn4)cc23)cc1 [Example 115, N-(5-cyanopyridin-2-yl)-3-(4-((2-(dimethylamino)ethyl)carbamoyl)phenyl)-N-methylpyrazolo[1,5-a]pyridine-5-carboxamide]	155	79
CNC(=O)c1ccc(-c2cnn3ccc(C(=O)N(c4ccc(Cl)cc4)C4CC4)cc23)cc1 [Example 116, N-(4-Chlorophenyl)-N-cyclopropyl-3-(4-(methylcarbamoyl)phenyl)pyrazolo[1,5-a]pyridine-5-carboxamide]	1	3
CNC(=O)c1ccc(-c2cnn3ccc(C(=O)N(CC4CC4)c4ccc(C#N)cn4)cc23)cc1 [Example 117, N-(5-Cyanopyridin-2-yl)-N-(cyclopropylmethyl)-3-(4-(methylcarbamoyl)phenyl)pyrazolo[1,5-a]pyridine-5-carboxamide]	4	7
CNC(=O)c1ccc(-c2cnn3ccc(C(=O)N(c4ccc(C#N)cc4)C4CC4)cc23)cc1 [Example 118, N-(4-Cyanophenyl)-N-cyclopropyl-3-(4-(methylcarbamoyl)phenyl)pyrazolo[1,5-a]pyridine-5-carboxamide]	3	1
CNC(=O)c1ccc(-c2cnn3ccc(C(=O)N(c4ccc(C#N)cn4)C(C)(C)C)cc23)cc1 [Example 119, N-(tert-Butyl)-N-(5-cyanopyridin-2-yl)-3-(4-(methylcarbamoyl)phenyl)pyrazolo[1,5-a]pyridine-5-carboxamide]	95	56
CCN(C(=O)c1ccn2ncc(-c3ccc(S(=O)(=O)NC)cc3)c2c1)c1ccc(C#N)cn1 [Example 140, N-(5-cyanopyridin-2-yl)-N-ethyl-3-(4-[N-methylsulfamoyl]phenyl)pyrazolo[1,5-a]pyridine-5-carboxamide]	199	84
